For test [1], the species on record is Oryctolagus cuniculus. Briefly: In vitro evaluation in rabbit basilar artery for maximal response. It is filed as functional, organism-based.
For test [2], the species on record is Oryctolagus cuniculus. Put plainly: (§1) Intrinsic activity was measured as maximum contraction relative to 5-HT in rabbit basilar artery. Type of test: functional.
Test [3] is filed under the species Canis familiaris. Briefly: In vitro evaluation in the dog saphenous vein for maximal response. It is filed as functional, organism-based. Particulars: Canis lupus familiaris.
The species entered for test [4] is Canis familiaris. Put plainly: Intrinsic activity was measured as maximum contraction relative to 5-HT in dog saphenous vein. Type of test: functional, Canis lupus familiaris.
Test [5] addresses Serotonin 2 (5-HT2) receptor (Rattus norvegicus) (UniProt P30994+P08909+P14842). The note with it: Cortex.
For test [6], the target named is T1, 5-hydroxytryptamine receptor 2C (Rattus norvegicus) (UniProt P08909).
T1 sequence (whole entry): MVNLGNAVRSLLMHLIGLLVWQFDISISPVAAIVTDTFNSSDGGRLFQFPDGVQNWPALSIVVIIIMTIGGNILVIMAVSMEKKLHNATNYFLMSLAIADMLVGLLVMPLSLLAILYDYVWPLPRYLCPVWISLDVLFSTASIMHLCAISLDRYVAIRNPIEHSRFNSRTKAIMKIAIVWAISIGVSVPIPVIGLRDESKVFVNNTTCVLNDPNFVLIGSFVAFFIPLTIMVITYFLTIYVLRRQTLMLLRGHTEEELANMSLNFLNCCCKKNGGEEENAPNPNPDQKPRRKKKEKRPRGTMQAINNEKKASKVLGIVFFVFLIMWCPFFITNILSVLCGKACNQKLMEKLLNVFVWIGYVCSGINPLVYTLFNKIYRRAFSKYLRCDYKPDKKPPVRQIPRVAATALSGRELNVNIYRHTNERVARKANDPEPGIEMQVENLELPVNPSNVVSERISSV

The target in test [7] is Serotonin 2 (5-HT2) receptor (Homo sapiens) (UniProt P41595+P28223+P28335).
Test [8] can be described thus: as §1. Type of test: functional, Oryctolagus cuniculus.

This note sets out measurements from ChEMBL document CHEMBL1126726 (J Med Chem, 1993).

Serotonin 2 (5-HT2) receptor (Rattus norvegicus), sequence (P14842 whole entry, looked up, one chain of several): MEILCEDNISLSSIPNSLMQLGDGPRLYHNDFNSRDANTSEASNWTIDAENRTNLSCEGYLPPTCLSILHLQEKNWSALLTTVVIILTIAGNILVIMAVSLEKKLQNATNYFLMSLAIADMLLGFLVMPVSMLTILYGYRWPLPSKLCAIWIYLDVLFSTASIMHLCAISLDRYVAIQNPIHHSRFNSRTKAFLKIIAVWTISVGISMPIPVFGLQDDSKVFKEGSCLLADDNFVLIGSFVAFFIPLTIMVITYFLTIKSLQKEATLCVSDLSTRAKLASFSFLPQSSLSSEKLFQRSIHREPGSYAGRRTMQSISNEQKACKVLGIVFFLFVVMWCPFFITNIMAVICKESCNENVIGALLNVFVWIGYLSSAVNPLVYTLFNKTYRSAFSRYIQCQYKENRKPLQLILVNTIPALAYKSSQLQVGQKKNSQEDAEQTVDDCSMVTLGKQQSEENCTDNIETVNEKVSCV
Serotonin 2 (5-HT2) receptor (Rattus norvegicus), sequence (P30994 whole entry, looked up, one chain of several): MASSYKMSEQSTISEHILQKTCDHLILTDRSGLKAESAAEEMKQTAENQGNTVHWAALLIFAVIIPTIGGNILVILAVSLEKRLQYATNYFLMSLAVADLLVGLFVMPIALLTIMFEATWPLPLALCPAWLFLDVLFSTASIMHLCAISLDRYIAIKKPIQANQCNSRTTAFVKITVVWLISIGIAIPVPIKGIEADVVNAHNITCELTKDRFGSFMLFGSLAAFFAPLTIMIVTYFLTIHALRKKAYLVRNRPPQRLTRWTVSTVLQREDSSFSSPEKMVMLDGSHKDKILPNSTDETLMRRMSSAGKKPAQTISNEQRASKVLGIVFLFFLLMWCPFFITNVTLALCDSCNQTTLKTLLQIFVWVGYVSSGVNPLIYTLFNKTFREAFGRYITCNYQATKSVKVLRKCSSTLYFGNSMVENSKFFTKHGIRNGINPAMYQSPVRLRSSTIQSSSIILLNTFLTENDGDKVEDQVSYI
Serotonin 2 (5-HT2) receptor (Homo sapiens), sequence (P28223 whole entry, looked up): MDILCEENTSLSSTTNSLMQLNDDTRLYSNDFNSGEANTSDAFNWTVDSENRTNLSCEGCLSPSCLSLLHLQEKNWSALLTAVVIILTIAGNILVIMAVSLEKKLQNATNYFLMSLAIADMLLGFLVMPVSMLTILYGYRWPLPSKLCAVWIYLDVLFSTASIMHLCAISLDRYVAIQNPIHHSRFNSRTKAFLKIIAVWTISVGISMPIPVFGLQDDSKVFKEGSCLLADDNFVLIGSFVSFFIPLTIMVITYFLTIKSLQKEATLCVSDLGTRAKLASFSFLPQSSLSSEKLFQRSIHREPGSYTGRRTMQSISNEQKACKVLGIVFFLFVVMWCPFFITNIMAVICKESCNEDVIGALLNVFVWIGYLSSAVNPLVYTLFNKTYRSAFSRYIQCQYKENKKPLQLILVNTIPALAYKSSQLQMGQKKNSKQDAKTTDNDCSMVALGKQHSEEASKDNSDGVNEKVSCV
Serotonin 2 (5-HT2) receptor (Homo sapiens), sequence (P28335 whole entry, looked up): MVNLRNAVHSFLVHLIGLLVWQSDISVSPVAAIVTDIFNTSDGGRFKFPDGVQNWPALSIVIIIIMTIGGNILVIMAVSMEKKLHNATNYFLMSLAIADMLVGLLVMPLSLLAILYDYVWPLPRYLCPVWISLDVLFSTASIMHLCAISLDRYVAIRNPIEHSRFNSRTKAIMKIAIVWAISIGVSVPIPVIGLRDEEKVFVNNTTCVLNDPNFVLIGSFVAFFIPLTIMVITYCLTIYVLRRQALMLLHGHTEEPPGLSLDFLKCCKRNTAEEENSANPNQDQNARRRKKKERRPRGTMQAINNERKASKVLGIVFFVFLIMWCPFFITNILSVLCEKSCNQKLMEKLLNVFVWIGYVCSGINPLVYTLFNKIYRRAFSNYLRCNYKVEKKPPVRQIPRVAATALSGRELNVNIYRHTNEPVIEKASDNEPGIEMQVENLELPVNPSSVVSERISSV
Serotonin 2 (5-HT2) receptor (Homo sapiens), sequence (P41595 whole entry, looked up): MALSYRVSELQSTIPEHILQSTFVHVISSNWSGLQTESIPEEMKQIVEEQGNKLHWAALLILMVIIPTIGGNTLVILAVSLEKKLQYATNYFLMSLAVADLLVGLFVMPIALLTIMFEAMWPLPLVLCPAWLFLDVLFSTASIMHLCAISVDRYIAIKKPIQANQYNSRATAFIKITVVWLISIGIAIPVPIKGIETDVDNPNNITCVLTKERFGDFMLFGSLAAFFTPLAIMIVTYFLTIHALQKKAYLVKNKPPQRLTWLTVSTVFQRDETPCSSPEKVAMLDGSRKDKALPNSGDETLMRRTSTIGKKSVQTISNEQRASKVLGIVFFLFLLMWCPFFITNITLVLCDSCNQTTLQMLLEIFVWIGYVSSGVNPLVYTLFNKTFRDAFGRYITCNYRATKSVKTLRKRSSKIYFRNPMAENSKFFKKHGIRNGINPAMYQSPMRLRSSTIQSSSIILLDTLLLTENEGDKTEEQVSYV

Consider `CNS(=O)(=O)Cc1ccc2[nH]cc(CCN(C)C)c2c1`, for which the EC50 in test [1] was 2400 nM; in test [3] it was 400 nM. The IA is listed as 0.74 in test [2] and 0.78 in test [4]. This compound also had a pKD in test [5] above 4.

As for `NCCc1c[nH]c2ccc(C(N)=O)cc12`, the pKD came out at 6.2 in test [6] and 4.7 in test [7].

Turning to `CCN(CC)C(=O)N[C@H]1C=C2c3cccc4[nH]cc(c34)C[C@H]2N(C)C1` [LISURIDE], the IA in test [2] and in test [4] was 0.73 throughout.

Consider `NCCc1c[nH]c2ccc(O)cc12` [SEROTONIN], for which the IA in test [8] and in test [4] was 1 each time.
